Common to all, as to assay type: cell-based
Assay [1] has as its system Listeria monocytogenes (ATCC49594). The assay can be described thus: Microtitre plate assay, IC90 determination, LMO 49594. The following applies: 90% inhibitory concentration for bacterial growth, 37° C., resazurin fluorescence; for IC90 (μg/ml) LMO 49594: 24 hours; for IC90: Listeria monocytogenes, ATCC49594, 24 h, read-out: IC90 (μg/ml) LMO 49594. As for the experimental part:
(§1) The bacteria used in this study were grown overnight in flasks containing 100 ml Mueller-Hinton Broth (Becton Dickinson—cat. no. 275730) in sterile de-ionized water, with shaking, at 37° C. Stocks (0.5 ml/tube) were stored at −70° C. until use. Bacteria titrations were performed in microtiter plates to detect the TCID50, in which the TCID50 represents the dilution that gives rise to bacterial growth in 50% of inoculated cultures.
(§2) In general, an inoculum level of approximately 100 TCID50 was used for susceptibility testing.
(§3) Flat-bottom, sterile 96-well plastic microtiter plates were filled with 180 μl of sterile deionized water, supplemented with 0.25% BSA. Subsequently, stock solutions (7.8× final test concentration) of compounds were added in 45 μl volumes in column 2. Serial five-fold dilutions (45 μl in 180 μl) were made directly in the microtiter plates from column 2 to reach column 11. Untreated control samples with (column 1) and without (column 12) inoculum were included in each microtiter plate. Depending on the bacteria type, approximately 10 to 60 CFU per well of bacteria inoculum (100 TCID50), in a volume of 100 μl in 2.8× Mueller-Hinton broth medium, was added to the rows A to H, except column 12. The same volume of broth medium without inoculum was added to column 12 in row A to H. The cultures were incubated at 37° C. for 24 hours under a normal atmosphere (incubator with open air valve and continuous ventilation). At the end of incubation, one day after inoculation, the bacterial growth was quantitated fluorometrically. Therefore resazurin (0.6 mg/ml) was added in a volume of 20 μl to all wells 3 hours after inoculation, and the plates were re-incubated overnight. A change in colour from blue to pink indicated the growth of bacteria. The fluorescence was read in a computer-controlled fluorometer (Cytofluor Biosearch) at an excitation wavelength of 530 nm and an emission wavelength of 590 nm. The % growth inhibition achieved by the compounds was calculated according to standard methods. The IC90 (expressed in μg/ml) was defined as the 90% inhibitory concentration for bacterial growth.
(§4) BSU 3639 means Bacillus subtilis (ATCC43639); ECO 25922 means Escherichia coli (ATCC25922); EFA 14506 means Enterococcus faecalis (ATCC14506); EFA 29212 means Enterococcus faecalis (ATCC29212); LMO 49594 means Listeria monocytogenes (ATCC49594); PAE 27853 means Pseudomonas aeruginosa (ATCC27853); SMU 33402 means Streptococcus mutans (ATCC33402); SPN 6305 means Streptococcus pneumoniae (ATCC6305); SPY 8668 means Streptococcus pyogens (ATCC8668); STA 43300 means Staphylococcus aureus (ATCC43300); STA 25923 means Staphylococcus aureus (ATCC25923); STA 29213 means Staphylococcus aureus (ATCC29213); STA RMETH means methicilline resistant Staphylococcus aureus (MRSA) (a clinical isolate from the University of Antwerp). ATCC means American type tissue culture.

Assay [2] has as its system Streptococcus mutans (ATCC33402). The assay can be described thus: Microtitre plate assay, IC90 determination, SMU 33402. The settings on record: 90% inhibitory concentration for bacterial growth, 37° C., resazurin fluorescence; for IC90 (μg/ml) SMU 33402: 24 hours; for IC90: Streptococcus mutans, ATCC33402, 24 h, read-out: IC90 (μg/ml) SMU 33402. As for the experimental part: as §1, §2, §3, §4
In general terms: The colour change of resazurin is a common sign of viable cells or microbes.

Assay [3] deals with Streptococcus pyogens (ATCC8668). The assay can be described thus: Microtitre plate assay, IC90 determination, SPY 8668. The following applies: 90% inhibitory concentration for bacterial growth, 37° C., resazurin fluorescence; for IC90: Streptococcus, ATCC8668, 24 h, read-out: IC90 (μg/ml) SPY 8668. On the procedure: as §1, §2, §3, §4
For assay [4], the system named is Pseudomonas aeruginosa (ATCC27853). The assay is described as follows: Microtitre plate assay, IC90 determination, PAE 27853. The settings on record: Pseudomonas aeruginosa, ATCC27853, 24 h, 90% inhibitory concentration for bacterial growth, 37° C., resazurin fluorescence, read-out: IC90 (μg/ml) PAE 27853. On the procedure: as §1, §2, §3, §4
Assay [5] relates to Bacillus subtilis (ATCC43639). The assay can be described thus: Microtitre plate assay, IC90 determination, BSU 43639. The settings on record: 90% inhibitory concentration for bacterial growth, 37° C., resazurin fluorescence; for IC90: Bacillus subtilis, ATCC43639, 24 h, read-out: IC90 (μg/ml) BSU 43639. As for the experimental part:
as §1, §2, §3, §4

Assay [6] has as its system Streptococcus pneumoniae (ATCC6305). The assay can be described thus: Microtitre plate assay, IC90 determination, SPN 6305. The following applies: 90% inhibitory concentration for bacterial growth, 37° C., resazurin fluorescence; for IC90 (μg/ml) SPN 6305: 24 hours; for IC90: Streptococcus pneumoniae, ATCC6305, 24 h, read-out: IC90 (μg/ml) SPN 6305. As for the experimental part: as §1, §2, §3, §4

The subject of assay [7] is Enterococcus faecalis (ATCC29212). The assay can be described thus: Microtitre plate assay, IC90 determination, EFA 29212. The following applies: 90% inhibitory concentration for bacterial growth, 37° C., resazurin fluorescence; for IC90: Enterococcus faecalis, ATCC29212, 24 h, read-out: IC90 (μg/ml) EFA 29212. On the procedure:
as §1, §2, §3, §4

Assay [8] deals with Staphylococcus aureus (ATCC43300). The assay is described as follows: Microtitre plate assay, IC90 determination, STA 43300. The following applies: Staphylococcus aureus, ATCC43300, 24 h, 90% inhibitory concentration for bacterial growth, 37° C., resazurin fluorescence, read-out: IC90 (μg/ml) STA 43300. On the procedure:
as §1, §2, §3, §4

From patent US7709498B2, “Quinoline derivatives as antibacterial agents” (Janssen Pharmaceutica N.V., priority 2005, dated 2010) come the findings set out here.

≈ marks a conversion by molar mass, not a printed value.

As for `COc1nc2ccc(Br)cc2cc1C(c1ccccc1)C(O)(CC[N+](C)(C)[O-])c1ccccc1` (racemic) [Compound 11], the “IC90 (μg/ml) LMO 49594” value in assay [1] worked out at 11.7 µg/mL (≈ 22.4 µM). Besides, the “IC90 (μg/ml) SMU 33402” value in assay [2] amounted to 10.4 µg/mL (≈ 19.9 µM). Besides, the “IC90 (μg/ml) SPY 8668” value in assay [3] (24 hours) amounted to 11.7 µg/mL (≈ 22.4 µM).

Consider `COc1nc2ccc(Br)cc2cc1C(c1ccccc1)C(O)(CCN(C)C)c1ccc(Cl)cc1` (stereo not drawn) [Compound 16], for which, in assay [4], the IC90 is 13.6 µg/mL (≈ 25.2 µM).

For the compound `COc1nc2ccc(Br)cc2cc1C(c1ccccc1)C(O)(CCN1CCN(C)CC1)c1ccccc1` (racemic) [Compound 51], the “IC90 (μg/ml) LMO 49594” value in assay [1] was determined as 25.0 µg/mL (≈ 44.6 µM). In addition, the “IC90 (μg/ml) BSU 43639” value in assay [5] (24 hours) was 28.1 µg/mL (≈ 50.1 µM). The “IC90 (μg/ml) SPN 6305” value in assay [6] was 5.6 µg/mL (≈ 9.99 µM). Besides, in assay [7] (24 hours), the “IC90 (μg/ml) EFA 29212” value was determined as 25.0 µg/mL (≈ 44.6 µM).

Consider `COc1nc2ccc(Br)cc2cc1C(c1ccccc1)C(O)(CCN(C)C)c1ccc2c(c1)OCCO2` (stereo not drawn) [Compound 77], for which the results for the IC90 in assay [6] and in assay [4] were 14.2 µg/mL (≈ 25.2 µM) and 11.2 µg/mL (≈ 19.9 µM), respectively.

In the case of `COc1nc2ccc(Br)cc2cc1C(c1ccccc1)C(O)(CCN(C)C)c1cccs1` (stereo not drawn) [Compound 21], the IC90 in assay [1] came to 4.6 µg/mL (≈ 8.99 µM); in assay [2] it was 11.5 µg/mL (≈ 22.5 µM); in assay [8], 12.8 µg/mL (≈ 25 µM); in assay [7], 11.5 µg/mL (≈ 22.5 µM). In addition, the “IC90 (μg/ml) SPN 6305” value in assay [6] is 12.8 µg/mL (≈ 25 µM).

For `COc1nc2ccc(-c3ccccc3)cc2cc1C(c1ccccc1)C(O)(CCN(C)C)c1cccc2ccccc12` (stereo not drawn) [Compound 84], the IC90 was 11 µg/mL (≈ 19.9 µM) in assay [1], 11 µg/mL (≈ 19.9 µM) in assay [2], 11 µg/mL (≈ 19.9 µM) in assay [3] and 7 µg/mL (≈ 12.7 µM) in assay [6].

Turning to `COc1nc2ccc(-c3cccnc3)cc2cc1C(c1ccccc1)C(O)(CCN(C)C)c1cc(F)cc(F)c1` (stereo not drawn) [Compound G], the figures for the IC90 in assay [1], in assay [5] and in assay [7] were 10.8 µg/mL (≈ 20 µM), 13.6 µg/mL (≈ 25.2 µM) and 10.8 µg/mL (≈ 20 µM), respectively.

As for `COc1nc2ccc(Br)cc2cc1C(c1ccccc1)C(O)(CCN(C)C)C1CCN(C(=O)c2ccccc2)CC1` (stereo not drawn) [Compound 201], the IC90 in assay [1], in assay [5], in assay [7] and in assay [4] was 12.3 µg/mL (≈ 19.9 µM) each time.

As for `CCOc1nc2ccc(Br)cc2cc1C(c1ccccc1)C(O)(CCN(C)C)c1ccccc1` (stereo not drawn) [Compound 6], the IC90 in assay [1] worked out at 11.6 µg/mL (≈ 22.3 µM); in assay [3] it was 4.6 µg/mL (≈ 8.85 µM); in assay [6] it was 13 µg/mL (≈ 25 µM); in assay [7], 11.6 µg/mL (≈ 22.3 µM); in assay [4], 11.6 µg/mL (≈ 22.3 µM). In addition, the “IC90 (μg/ml) SMU 33402” value in assay [2] worked out at 4.6 µg/mL (≈ 8.85 µM).

`COc1nc2ccc(Br)cc2cc1C(c1ccccc1)C(O)(CCN(C)C)c1ccc2c(c1)OCO2` (stereo not drawn) [Compound 76]: the IC90 in assay [1] and in assay [4] was 11 µg/mL (≈ 20 µM) each time.

For `COc1nc2ccc(Br)cc2cc1C(c1ccccc1)C(O)(CCN1CCCCC1)c1ccccc1` (stereo not drawn) [Compound 48], the IC90 in assay [1] was determined as 10.9 µg/mL (≈ 20 µM); in assay [2], 10.9 µg/mL (≈ 20 µM); in assay [3], 13.7 µg/mL (≈ 25.1 µM); in assay [6] it was 13.7 µg/mL (≈ 25.1 µM); in assay [4], 10.9 µg/mL (≈ 20 µM).
